# Measurements published in patent publication US11622991B2, “Protocol for treatment of lupus nephritis” (Aurinia Pharmaceuticals Inc., priority 2017, dated 2023).
# Columns and labels:
# lupus nephritis [1] = test: Pharmacodynamic dosing (eGFR-based dose reduction): CR/PR in patients with and without dose reduction; format: in vivo, human
# Description: To determine the efficacy of the pharmacodynamic protocol wherein dosage is reduced or stopped according to the presence or absence of indicators of the decrease in eGFR experienced as a side effect, these three groups of patients were assessed after 24 weeks and 48 weeks of treatment with respect to whether treatment was altered according to the invention protocol.
# In this study, CR was defined as a composite of UPCR ≤0.5 mg/mg; eGFR >60 mL/min/1.73 m^2 or within 20% of baseline, steroids at ≤10 mg/day and no administration of rescue medication. PR is defined as UPCR reduction of 50% from baseline and no use of rescue medication.
# lupus nephritis [2] = test: Probability of attaining CR by proteinuria depending on UPCR reduction of 25% at 8 weeks (Tables 9a, 9b); format: in vivo, human
# [3] = 24 weeks, High Dose (39.5 mg BID)
# [4] = 24 weeks, Low Dose (23.7 mg BID)
# [5] = 48 weeks, High Dose (39.5 mg BID)
# [6] = 48 weeks, Low Dose (23.7 mg BID)
# [7] = patients with dose reductions (pharmacodynamically dosed), High Dose (39.5 mg BID)
# [8] = patients with dose reductions (pharmacodynamically dosed), Low Dose (23.7 mg BID)
# [9] = patients with no dose reductions, High Dose (39.5 mg BID)
# [10] = patients with no dose reductions, Low Dose (23.7 mg BID)
compound,measurement,setting,value
C=C/C=C/C[C@@H](C)[C@@H](O)[C@H]1C(=O)N[C@@H](CC)C(=O)N(C)CC(=O)N(C)[C@@H](CC(C)C)C(=O)N[C@@H](C(C)C)C(=O)N(C)[C@@H](CC(C)C)C(=O)N[C@@H](C)C(=O)N[C@H](C)C(=O)N(C)[C@@H](CC(C)C)C(=O)N(C)[C@@H](CC(C)C)C(=O)N(C)[C@@H](C(C)C)C(=O)N1C [voclosporin],Patients with Dose Reduction,lupus nephritis [1]; [3],47 (53.4) n(%)
same,Patients with no Dose Reduction,lupus nephritis [1]; [3],41 (46.6) n(%)
same,Patients with Dose Reduction,lupus nephritis [1]; [4],39 (43.8) n(%)
same,Patients with no Dose Reduction,lupus nephritis [1]; [4],50 (56.2) n(%)
same,Patients with Dose Reduction,lupus nephritis [1]; [5],53 (60.2) n(%)
same,Patients with no Dose Reduction,lupus nephritis [1]; [5],35 (39.8) n(%)
same,Patients with Dose Reduction,lupus nephritis [1]; [6],46 (51.7) n(%)
same,Patients with no Dose Reduction,lupus nephritis [1]; [6],43 (48.3) n(%)
same,Patients with CR at 24 weeks,lupus nephritis [1]; [7],13 (27.7) n(%)
same,Patients with CR at 48 weeks,lupus nephritis [1]; [7],24 (45.3) n(%)
same,Patients with PR at 24 weeks,lupus nephritis [1]; [7],34 (72.3) n(%)
same,Patients with PR at 48 weeks,lupus nephritis [1]; [7],41 (77.4) n(%)
same,Patients with CR at 24 weeks,lupus nephritis [1]; [8],14 (35.9) n(%)
same,Patients with CR at 48 weeks,lupus nephritis [1]; [8],24 (52.2) n(%)
same,Patients with PR at 24 weeks,lupus nephritis [1]; [8],28 (71.8) n(%)
same,Patients with PR at 48 weeks,lupus nephritis [1]; [8],35 (76.1) n(%)
same,Patients with CR at 24 weeks,lupus nephritis [1]; [9],11 (26.8) n(%)
same,Patients with CR at 48 weeks,lupus nephritis [1]; [9],11 (31.4) n(%)
same,Patients with PR at 24 weeks,lupus nephritis [1]; [9],24 (58.5) n(%)
same,Patients with PR at 48 weeks,lupus nephritis [1]; [9],22 (62.9) n(%)
same,Patients with CR at 24 weeks,lupus nephritis [1]; [10],15 (30.0) n(%)
same,Patients with CR at 48 weeks,lupus nephritis [1]; [10],20 (46.5) n(%)
same,Patients with PR at 24 weeks,lupus nephritis [1]; [10],34 (68.0) n(%)
same,Patients with PR at 48 weeks,lupus nephritis [1]; [10],26 (60.5) n(%)
same,# of patients without UPCR reduction of ≥25% at 8 weeks,lupus nephritis [2]; High Dose (39.5 mg BID),12
same,# of CRs by Proteinuria at 24 weeks,lupus nephritis [2]; Low Dose (23.7 mg BID),29
same,# of patients with UPCR reduction of ≥25% at 8 weeks,lupus nephritis [2]; Low Dose (23.7 mg BID),64
same,# of patients without UPCR reduction of ≥25% at 8 weeks,lupus nephritis [2]; Low Dose (23.7 mg BID),16
